Laboratory results from article PMC5540273, “Progress towards a public chemogenomic set for protein kinases and a call for contributions” (PLoS ONE, 2017).

Legend:
Test in all cases: KINOMEscan competition binding
[1] = target: T1, CDC2L2 (Homo sapiens, UniProt Q9UQ88); settings: read-out: %Inh CDC2L2
T1 sequence (Q9UQ88 1-783): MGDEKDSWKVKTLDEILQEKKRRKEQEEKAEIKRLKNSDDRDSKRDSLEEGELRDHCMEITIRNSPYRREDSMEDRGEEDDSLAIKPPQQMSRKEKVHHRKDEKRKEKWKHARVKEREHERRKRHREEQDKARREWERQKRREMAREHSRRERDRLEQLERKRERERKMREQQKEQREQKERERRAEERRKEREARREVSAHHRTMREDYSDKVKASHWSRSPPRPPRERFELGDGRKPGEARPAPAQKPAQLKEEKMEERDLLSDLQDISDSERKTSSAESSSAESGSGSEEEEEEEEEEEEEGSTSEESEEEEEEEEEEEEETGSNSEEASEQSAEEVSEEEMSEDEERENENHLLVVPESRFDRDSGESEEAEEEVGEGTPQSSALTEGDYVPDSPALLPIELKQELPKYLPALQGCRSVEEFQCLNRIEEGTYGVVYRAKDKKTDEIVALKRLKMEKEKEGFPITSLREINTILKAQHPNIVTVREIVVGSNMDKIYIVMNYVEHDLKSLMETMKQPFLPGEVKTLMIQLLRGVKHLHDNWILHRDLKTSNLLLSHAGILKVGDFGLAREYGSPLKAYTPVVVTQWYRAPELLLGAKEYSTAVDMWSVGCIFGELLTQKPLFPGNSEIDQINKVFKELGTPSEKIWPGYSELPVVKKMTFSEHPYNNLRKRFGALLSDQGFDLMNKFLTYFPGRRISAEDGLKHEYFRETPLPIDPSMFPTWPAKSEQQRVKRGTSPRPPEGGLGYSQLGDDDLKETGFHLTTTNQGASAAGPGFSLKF

[2] = target: T2, CASK (Homo sapiens, UniProt O14936); settings: read-out: %Inh CASK
T2 sequence (O14936 1-926): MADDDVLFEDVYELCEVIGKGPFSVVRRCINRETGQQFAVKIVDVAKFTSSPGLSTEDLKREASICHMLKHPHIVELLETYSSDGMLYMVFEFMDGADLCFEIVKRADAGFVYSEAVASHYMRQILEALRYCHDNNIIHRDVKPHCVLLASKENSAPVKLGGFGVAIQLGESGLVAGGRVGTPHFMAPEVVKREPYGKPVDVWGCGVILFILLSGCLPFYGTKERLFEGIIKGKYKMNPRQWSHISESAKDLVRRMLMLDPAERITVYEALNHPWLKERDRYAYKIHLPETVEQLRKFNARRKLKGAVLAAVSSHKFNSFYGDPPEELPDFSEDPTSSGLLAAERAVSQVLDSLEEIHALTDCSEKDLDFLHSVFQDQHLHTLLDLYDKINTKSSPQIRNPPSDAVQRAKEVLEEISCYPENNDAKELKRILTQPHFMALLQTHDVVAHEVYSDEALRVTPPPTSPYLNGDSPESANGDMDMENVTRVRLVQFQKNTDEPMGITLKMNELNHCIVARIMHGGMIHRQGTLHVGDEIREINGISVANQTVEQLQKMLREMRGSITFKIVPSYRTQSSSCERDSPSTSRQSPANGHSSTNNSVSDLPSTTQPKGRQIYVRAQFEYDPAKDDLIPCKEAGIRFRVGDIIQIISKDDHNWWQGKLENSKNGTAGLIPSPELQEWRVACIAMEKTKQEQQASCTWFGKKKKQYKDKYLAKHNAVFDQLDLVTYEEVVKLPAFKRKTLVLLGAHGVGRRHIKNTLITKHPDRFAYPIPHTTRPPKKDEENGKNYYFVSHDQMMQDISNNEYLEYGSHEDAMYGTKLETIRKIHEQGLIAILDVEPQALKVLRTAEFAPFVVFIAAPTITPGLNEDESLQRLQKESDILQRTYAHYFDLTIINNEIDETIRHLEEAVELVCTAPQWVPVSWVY

[3] = target: LRRK2 (Homo sapiens, UniProt Q5S007); settings: read-out: %Inh LRRK2
[4] = target: CAMK2B (Homo sapiens, UniProt Q13554); settings: read-out: %Inh CAMK2B
[5] = target: T3, CDKL5 (Homo sapiens, UniProt O76039); settings: read-out: %Inh CDKL5
T3 sequence (O76039 1-960): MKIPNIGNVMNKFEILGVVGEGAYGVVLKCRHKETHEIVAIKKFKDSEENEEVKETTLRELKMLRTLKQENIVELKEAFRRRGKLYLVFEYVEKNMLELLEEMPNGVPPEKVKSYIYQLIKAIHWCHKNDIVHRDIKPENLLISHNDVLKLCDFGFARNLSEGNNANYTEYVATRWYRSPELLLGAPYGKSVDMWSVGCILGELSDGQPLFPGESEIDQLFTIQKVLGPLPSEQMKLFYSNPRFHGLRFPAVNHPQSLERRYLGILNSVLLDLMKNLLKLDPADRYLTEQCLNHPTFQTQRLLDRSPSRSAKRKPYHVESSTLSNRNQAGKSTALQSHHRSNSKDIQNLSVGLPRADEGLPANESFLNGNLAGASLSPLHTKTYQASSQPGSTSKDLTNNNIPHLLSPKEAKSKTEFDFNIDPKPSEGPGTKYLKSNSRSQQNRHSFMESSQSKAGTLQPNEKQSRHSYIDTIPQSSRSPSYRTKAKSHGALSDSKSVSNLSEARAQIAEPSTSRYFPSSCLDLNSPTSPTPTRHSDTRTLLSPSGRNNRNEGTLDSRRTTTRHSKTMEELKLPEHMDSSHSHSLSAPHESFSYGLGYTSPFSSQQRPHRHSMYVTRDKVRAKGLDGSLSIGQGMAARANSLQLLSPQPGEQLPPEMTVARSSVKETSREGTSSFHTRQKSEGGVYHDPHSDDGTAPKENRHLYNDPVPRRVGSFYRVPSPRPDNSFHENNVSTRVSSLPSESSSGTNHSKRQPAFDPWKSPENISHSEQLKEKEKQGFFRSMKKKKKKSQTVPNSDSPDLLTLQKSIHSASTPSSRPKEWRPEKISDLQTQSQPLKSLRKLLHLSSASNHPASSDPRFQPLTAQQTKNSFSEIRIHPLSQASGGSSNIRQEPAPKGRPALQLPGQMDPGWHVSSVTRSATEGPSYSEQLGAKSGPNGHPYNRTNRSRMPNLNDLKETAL

[6] = target: MAP3K1 (Homo sapiens, UniProt Q13233); settings: read-out: %Inh MAP3K1
[7] = target: CDC2L1 (Homo sapiens, UniProt P21127); settings: read-out: %Inh CDC2L1

Sequence of MAP3K1 (Q13233 whole entry): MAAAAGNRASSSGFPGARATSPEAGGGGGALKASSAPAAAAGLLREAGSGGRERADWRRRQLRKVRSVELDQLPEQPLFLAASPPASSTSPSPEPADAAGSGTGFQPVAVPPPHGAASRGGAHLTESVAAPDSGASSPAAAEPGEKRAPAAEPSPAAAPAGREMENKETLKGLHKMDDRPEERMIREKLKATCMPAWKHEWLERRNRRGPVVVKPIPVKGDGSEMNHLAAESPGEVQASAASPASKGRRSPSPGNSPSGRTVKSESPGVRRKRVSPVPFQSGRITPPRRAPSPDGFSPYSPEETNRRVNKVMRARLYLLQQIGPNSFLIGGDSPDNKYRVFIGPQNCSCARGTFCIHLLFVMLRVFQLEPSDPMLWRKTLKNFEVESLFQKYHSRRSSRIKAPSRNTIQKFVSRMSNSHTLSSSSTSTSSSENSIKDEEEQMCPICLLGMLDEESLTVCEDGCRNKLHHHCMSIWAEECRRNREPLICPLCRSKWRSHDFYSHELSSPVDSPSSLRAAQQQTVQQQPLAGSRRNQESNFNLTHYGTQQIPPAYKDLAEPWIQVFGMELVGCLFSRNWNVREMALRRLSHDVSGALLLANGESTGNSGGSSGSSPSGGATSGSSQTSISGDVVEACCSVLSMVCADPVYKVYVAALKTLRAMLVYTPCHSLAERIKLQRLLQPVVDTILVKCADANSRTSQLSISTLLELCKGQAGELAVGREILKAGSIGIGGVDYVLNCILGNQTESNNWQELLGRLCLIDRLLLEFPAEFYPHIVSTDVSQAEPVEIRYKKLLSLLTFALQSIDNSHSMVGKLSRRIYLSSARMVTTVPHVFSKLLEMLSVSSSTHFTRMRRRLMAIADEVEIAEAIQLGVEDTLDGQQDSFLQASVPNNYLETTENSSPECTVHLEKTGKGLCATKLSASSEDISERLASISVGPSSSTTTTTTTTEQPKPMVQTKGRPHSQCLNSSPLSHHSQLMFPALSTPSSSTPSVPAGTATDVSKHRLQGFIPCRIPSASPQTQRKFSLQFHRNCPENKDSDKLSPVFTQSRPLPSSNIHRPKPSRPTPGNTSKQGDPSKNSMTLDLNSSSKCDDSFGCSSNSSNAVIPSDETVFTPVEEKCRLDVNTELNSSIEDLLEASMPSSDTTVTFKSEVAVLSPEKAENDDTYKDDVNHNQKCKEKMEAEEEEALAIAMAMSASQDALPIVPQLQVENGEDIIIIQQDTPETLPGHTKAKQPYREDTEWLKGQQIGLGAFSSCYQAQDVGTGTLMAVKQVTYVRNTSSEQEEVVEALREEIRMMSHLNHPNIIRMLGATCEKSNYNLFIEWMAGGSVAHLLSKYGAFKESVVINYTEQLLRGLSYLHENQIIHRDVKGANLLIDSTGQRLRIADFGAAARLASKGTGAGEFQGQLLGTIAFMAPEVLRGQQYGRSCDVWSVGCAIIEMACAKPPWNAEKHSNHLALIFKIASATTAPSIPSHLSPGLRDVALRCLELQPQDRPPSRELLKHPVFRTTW
Sequence of LRRK2 (Q5S007 whole entry): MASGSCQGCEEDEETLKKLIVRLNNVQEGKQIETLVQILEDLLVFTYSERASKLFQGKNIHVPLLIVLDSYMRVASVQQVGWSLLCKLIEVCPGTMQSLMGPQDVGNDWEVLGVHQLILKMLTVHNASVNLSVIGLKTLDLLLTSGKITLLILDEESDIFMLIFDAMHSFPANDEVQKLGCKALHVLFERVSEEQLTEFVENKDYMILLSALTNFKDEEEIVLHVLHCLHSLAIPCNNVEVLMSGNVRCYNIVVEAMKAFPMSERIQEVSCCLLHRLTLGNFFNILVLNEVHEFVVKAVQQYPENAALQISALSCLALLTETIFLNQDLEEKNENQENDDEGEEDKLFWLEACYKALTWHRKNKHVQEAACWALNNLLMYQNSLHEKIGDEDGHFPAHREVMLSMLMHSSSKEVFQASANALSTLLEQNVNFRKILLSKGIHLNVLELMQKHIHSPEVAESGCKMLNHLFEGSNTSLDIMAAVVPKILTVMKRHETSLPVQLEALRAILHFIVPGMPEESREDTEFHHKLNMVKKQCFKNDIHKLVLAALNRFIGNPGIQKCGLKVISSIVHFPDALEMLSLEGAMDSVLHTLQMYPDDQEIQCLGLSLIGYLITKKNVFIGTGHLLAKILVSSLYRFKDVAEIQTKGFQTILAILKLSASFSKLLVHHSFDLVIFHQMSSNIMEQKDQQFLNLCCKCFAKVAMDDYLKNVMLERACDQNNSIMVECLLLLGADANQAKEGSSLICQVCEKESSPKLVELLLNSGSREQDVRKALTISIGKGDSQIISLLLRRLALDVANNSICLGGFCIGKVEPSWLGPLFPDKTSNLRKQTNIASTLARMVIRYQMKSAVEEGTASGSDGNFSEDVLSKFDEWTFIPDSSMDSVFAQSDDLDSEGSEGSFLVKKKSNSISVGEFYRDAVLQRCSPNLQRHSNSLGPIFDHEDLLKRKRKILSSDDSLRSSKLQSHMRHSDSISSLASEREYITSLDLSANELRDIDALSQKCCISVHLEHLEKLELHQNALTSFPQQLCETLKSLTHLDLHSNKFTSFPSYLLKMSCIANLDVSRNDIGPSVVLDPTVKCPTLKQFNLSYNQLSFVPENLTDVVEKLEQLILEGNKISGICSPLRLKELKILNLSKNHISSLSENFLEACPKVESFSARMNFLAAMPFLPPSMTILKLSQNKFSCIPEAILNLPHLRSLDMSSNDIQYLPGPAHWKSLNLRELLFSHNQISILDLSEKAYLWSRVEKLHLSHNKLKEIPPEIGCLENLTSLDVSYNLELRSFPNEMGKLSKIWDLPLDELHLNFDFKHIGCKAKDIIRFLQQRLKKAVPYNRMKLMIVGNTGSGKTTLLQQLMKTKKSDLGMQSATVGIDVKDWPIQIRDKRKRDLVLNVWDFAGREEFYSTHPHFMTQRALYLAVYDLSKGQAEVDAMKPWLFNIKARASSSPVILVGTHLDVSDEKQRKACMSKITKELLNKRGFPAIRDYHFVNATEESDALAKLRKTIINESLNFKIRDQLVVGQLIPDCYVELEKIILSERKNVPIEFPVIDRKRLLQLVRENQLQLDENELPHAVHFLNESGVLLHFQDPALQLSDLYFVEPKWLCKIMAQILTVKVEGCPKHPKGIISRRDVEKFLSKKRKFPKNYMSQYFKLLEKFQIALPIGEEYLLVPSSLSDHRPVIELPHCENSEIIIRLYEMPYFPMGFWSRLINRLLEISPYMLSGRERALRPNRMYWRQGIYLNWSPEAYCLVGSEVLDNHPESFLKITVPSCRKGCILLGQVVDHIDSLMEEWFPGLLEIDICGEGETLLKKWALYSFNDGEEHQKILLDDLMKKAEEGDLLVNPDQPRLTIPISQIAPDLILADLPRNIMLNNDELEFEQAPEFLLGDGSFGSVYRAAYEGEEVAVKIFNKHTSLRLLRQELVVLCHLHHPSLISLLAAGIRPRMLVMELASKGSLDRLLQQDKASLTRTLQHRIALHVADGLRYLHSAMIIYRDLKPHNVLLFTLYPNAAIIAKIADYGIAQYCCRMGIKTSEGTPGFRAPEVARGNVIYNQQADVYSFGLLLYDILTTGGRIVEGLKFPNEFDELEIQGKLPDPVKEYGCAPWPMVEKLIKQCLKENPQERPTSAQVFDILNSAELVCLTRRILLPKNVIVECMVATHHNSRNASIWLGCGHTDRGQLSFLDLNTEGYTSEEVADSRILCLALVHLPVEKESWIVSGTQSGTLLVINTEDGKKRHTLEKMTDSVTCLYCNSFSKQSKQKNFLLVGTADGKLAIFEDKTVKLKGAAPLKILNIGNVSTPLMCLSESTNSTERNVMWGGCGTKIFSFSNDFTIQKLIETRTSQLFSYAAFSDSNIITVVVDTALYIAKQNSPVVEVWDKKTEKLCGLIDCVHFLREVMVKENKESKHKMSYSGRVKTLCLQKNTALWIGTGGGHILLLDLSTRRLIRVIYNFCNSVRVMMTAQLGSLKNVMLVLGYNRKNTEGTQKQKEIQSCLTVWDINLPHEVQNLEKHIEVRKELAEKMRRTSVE
Sequence of CAMK2B (Q13554 whole entry): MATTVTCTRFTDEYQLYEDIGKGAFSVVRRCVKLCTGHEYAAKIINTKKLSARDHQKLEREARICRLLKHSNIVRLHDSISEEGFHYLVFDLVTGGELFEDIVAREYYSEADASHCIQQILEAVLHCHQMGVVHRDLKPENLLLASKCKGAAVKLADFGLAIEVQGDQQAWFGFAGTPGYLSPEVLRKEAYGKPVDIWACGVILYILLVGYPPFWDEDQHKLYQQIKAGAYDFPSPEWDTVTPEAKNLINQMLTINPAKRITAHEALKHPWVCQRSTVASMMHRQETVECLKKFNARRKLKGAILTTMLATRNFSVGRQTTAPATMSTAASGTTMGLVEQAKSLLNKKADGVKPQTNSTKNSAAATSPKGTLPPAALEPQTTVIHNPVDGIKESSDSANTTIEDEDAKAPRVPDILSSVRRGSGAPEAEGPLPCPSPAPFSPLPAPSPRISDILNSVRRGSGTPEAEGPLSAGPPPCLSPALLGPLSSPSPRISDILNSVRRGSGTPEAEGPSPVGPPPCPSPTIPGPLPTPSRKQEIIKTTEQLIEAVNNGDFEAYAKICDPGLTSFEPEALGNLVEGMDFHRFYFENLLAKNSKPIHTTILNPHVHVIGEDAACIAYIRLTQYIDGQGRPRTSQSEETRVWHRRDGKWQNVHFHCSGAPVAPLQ

Row | SMILES | inhibition at 1 µM [1] [%] | inhibition at 1 µM [2] [%] | inhibition at 1 µM [3] [%] | inhibition at 1 µM [4] [%] | inhibition at 1 µM [5] [%] | inhibition at 1 µM [6] [%] | inhibition at 1 µM [7] [%]
1 | COc1cccc(OC)c1C(=O)Nc1cccc(-c2nn3ccccc3c2-c2ccnc(Nc3cccc(F)c3)n2)c1 [UNC10225310A] | 0 | 15 | 0 | 6 | 0 | 0 | 0
2 | Cc1ccc(NC(=O)Nc2cccc(C(F)(F)F)c2)cc1 [UNC10225187A] | 0 | 15 | 0 | 25 | 0 | 0 | 3
3 | O=c1cc(N2CCOCC2)nc2n(Cc3cccc(Cl)c3Cl)c(C3CC3)nn12 [UNC10225469A] | 0 | 26 | 0 | 10 | 0 | 14 | 0
4 | CS(=O)(=O)Cc1ccc(Nc2nccc(-c3c(-c4cccc(NC(=O)C5CCCCC5)c4)nn4ncccc34)n2)cc1 [UNC10225159A] | 27 | 34 | 20 | 8 | 33 | 30 | 0
5 | Cn1cc(-c2cnc(N)c3c(-c4ccc5c(c4)CCN5C(=O)Cc4ccccc4)csc23)cn1 [UNC10225012A] | 1 | 23 | 3 | 12 | 0 | 4 | 4
